Test results taken from patent publication US9156796B2, “Benzoimidazole-carboxylic acid amide derivatives as APJ receptor modulators” (SANOFI, priority 2013, dated 2015).

Target: T1, human apelin receptor (Homo sapiens, UniProt P35414)
T1 construct: expressed in transfected cells
T1 sequence (P35414 1-380): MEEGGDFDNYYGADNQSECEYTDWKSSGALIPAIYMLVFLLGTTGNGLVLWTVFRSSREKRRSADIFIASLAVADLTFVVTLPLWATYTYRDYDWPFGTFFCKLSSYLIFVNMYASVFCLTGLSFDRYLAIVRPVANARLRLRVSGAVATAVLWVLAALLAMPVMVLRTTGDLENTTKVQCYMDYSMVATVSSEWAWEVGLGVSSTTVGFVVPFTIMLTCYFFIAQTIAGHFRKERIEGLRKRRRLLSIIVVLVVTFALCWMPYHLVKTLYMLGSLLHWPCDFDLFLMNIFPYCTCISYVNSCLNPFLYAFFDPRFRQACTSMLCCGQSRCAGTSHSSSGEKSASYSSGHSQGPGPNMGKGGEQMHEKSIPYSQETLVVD
Test: Determination of agonism on the human apelin receptor by a calcium fluorescence assay (FLIPR)
Assay type: cell-based
Details: HEK293 cells stably transfected with human apelin receptor and Giaq protein, Fluo-4 calcium fluorescence, read-out: EC50 (APJ agonism)
Summary of the method: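 Agonist EC50s come from peak intracellular calcium transients recorded by FLIPR Tetra, scaled to the 1 μM apelin-13 maximum per plate. Test system: HEK293 stably transfected with human apelin receptor plus Giaq, Fluo-4-loaded (4 μM, 1 h, 37 °C, pH 7.4 buffer with probenecid); ≥7 concentrations, triplicates.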

Row | Structure (SMILES) | EC50 [nM]
1 | CCC(CC)n1c(Cc2cccs2)nc2cc(C(=O)N[C@@H](CC(C)C)C(=O)NC)ccc21 [Example 381, 1-(1-Ethyl-propyl)-2-thiophen-2-ylmethyl-1H-benzoimidazole-5-carboxylic acid ((S)-3-methyl-1-methylcarbamoyl-butyl)-amide] | 970
2 | CCC(CC)n1c(Cc2cccs2)nc2cc(C(=O)N[C@@H](CC(C)C)C(=O)N3CCC[C@H]3COC)ccc21 [Example 384, 1-(1-Ethyl-propyl)-2-thiophen-2-ylmethyl-1H-benzoimidazole-5-carboxylic acid [(S)-1-((S)-2-methoxymethyl-pyrrolidine-1-carbonyl)-3-methyl-butyl]-amide] | 1630
3 | CCCOCCNC(=O)[C@H](CC(C)C)NC(=O)c1ccc2c(c1)nc(Cc1cccs1)n2C(CC)CC [Example 385, 1-(1-Ethyl-propyl)-2-thiophen-2-ylmethyl-1H-benzoimidazole-5-carboxylic acid [(S)-3-methyl-1-(2-propoxy-ethylcarbamoyl)-butyl]-amide] | 2510
4 | CCC(CC)n1c(Cc2cccs2)nc2cc(C(=O)N[C@@H](CC(C)C)C(=O)NCC3CCCCO3)ccc21 (stereo partly drawn) [Example 386, 1-(1-Ethyl-propyl)-2-thiophen-2-ylmethyl-1H-benzoimidazole-5-carboxylic acid {(S)-3-methyl-1-[(tetrahydro-pyran-2-ylmethyl)-carbamoyl]-butyl}-amide] | 2230
5 | CCC(CC)n1c(Cc2cccs2)nc2cc(C(=O)N[C@@H](CC(C)C)C(=O)NCCCOCC3CCCO3)ccc21 (stereo partly drawn) [Example 388, 1-(1-Ethyl-propyl)-2-thiophen-2-ylmethyl-1H-benzoimidazole-5-carboxylic acid {(S)-3-methyl-1-[3-(tetrahydro-furan-2-ylmethoxy)-propylcarbamoyl]-butyl}-amide] | 1590
6 | CCC(CC)n1c(Cc2cccs2)nc2cc(C(=O)N[C@@H](CC(C)C)C(=O)NCCCOCc3ccccc3)ccc21 [Example 389, 1-(1-Ethyl-propyl)-2-thiophen-2-ylmethyl-1H-benzoimidazole-5-carboxylic acid [(S)-1-(3-benzyloxy-propylcarbamoyl)-3-methyl-butyl]-amide] | 17100
7 | CCC(CC)n1c(Cc2cccs2)nc2cc(C(=O)N[C@@H](CC(C)C)C(=O)N3CC[C@H](OCc4ccccc4)C3)ccc21 [Example 390, 1-(1-Ethyl-propyl)-2-thiophen-2-ylmethyl-1H-benzoimidazole-5-carboxylic acid [(S)-1-((S)-3-benzyloxy-pyrrolidine-1-carbonyl)-3-methyl-butyl]-amide] | 10900
8 | CCC(CC)n1c(Cc2cccs2)nc2cc(C(=O)N[C@@H](CC(C)C)C(=O)N(C)CCCC3CCCO3)ccc21 (stereo partly drawn) [Example 392, 1-(1-Ethyl-propyl)-2-thiophen-2-ylmethyl-1H-benzoimidazole-5-carboxylic acid ((S)-3-methyl-1-{methyl-[3-(tetrahydro-furan-2-yl)-propyl]-carbamoyl}-butyl)-amide] | 1380
9 | CCC(CC)n1c(Cc2cccs2)nc2cc(C(=O)N[C@@H](CC(C)C)C(=O)NCC3COCCO3)ccc21 (stereo partly drawn) [Example 393, 1-(1-Ethyl-propyl)-2-thiophen-2-ylmethyl-1H-benzoimidazole-5-carboxylic acid {(S)-1-[([1,4]dioxan-2-ylmethyl)-carbamoyl]-3-methyl-butyl}-amide] | 1360
10 | CCC(CC)n1c(Cc2cccs2)nc2cc(C(=O)N[C@@H](CC(C)C)C(=O)N(CC)CC3CCCCO3)ccc21 (stereo partly drawn) [Example 396, 1-(1-Ethyl-propyl)-2-thiophen-2-ylmethyl-1H-benzoimidazole-5-carboxylic acid {(S)-1-[ethyl-(tetrahydro-pyran-2-ylmethyl)-carbamoyl]-3-methyl-butyl}-amide] | 4040
11 | CCC(CC)n1c(Cc2cccs2)nc2cc(C(=O)N[C@@H](CC(C)C)C(=O)NCc3nnn[nH]3)ccc21 [Example 399, 1-(1-Ethyl-propyl)-2-thiophen-2-ylmethyl-1H-benzoimidazole-5-carboxylic acid {(S)-3-methyl-1-[(1H-tetrazol-5-ylmethyl)-carbamoyl]-butyl}-amide] | 99
12 | CCC(CC)n1c(Cc2cccs2)nc2cc(C(=O)N[C@@H](CC(C)C)C(=O)NCCc3nnn[nH]3)ccc21 [Example 400, 1-(1-Ethyl-propyl)-2-thiophen-2-ylmethyl-1H-benzoimidazole-5-carboxylic acid {(S)-3-methyl-1-[2-(1H-tetrazol-5-yl)-ethylcarbamoyl]-butyl}-amide] | 70
13 | CCC(CC)n1c(Cc2cccs2)nc2cc(C(=O)N[C@@H](CC(C)C)C(=O)NCCS(N)(=O)=O)ccc21 [Example 401, 1-(1-Ethyl-propyl)-2-thiophen-2-ylmethyl-1H-benzoimidazole-5-carboxylic acid [(S)-3-methyl-1-(2-sulfamoyl-ethylcarbamoyl)-butyl]-amide] | 600
14 | CCC(CC)n1c(Cc2cccs2)nc2cc(C(=O)N[C@@H](CC(C)C)C(=O)NCCNS(C)(=O)=O)ccc21 [Example 402, 1-(1-Ethyl-propyl)-2-thiophen-2-ylmethyl-1H-benzoimidazole-5-carboxylic acid [(S)-1-(2-methanesulfonylamino-ethylcarbamoyl)-3-methyl-butyl]-amide] | 777
15 | CCC(CC)n1c(Cc2cccs2)nc2cc(C(=O)N[C@@H](CC(C)C)C(=O)NCC#N)ccc21 [Example 403, 1-(1-Ethyl-propyl)-2-thiophen-2-ylmethyl-1H-benzoimidazole-5-carboxylic acid [(S)-1-(cyanomethyl-carbamoyl)-3-methyl-butyl]-amide] | 1610
16 | CCC(CC)n1c(Cc2cccs2)nc2cc(C(=O)N[C@@H](CC(C)C)C(=O)NCCC#N)ccc21 [Example 404, 1-(1-Ethyl-propyl)-2-thiophen-2-ylmethyl-1H-benzoimidazole-5-carboxylic acid [(S)-1-(2-cyano-ethylcarbamoyl)-3-methyl-butyl]-amide] | 788

Next, values leading:

Row | EC50 [nM] | Structure (SMILES)
17 | 586 | CCC(CC)n1c(Cc2cccs2)nc2cc(C(=O)N[C@@H](CC(C)C)C(=O)N(C)CCOC)ccc21 [Example 380, 1-(1-Ethyl-propyl)-2-thiophen-2-ylmethyl-1H-benzoimidazole-5-carboxylic acid {(S)-1-[(2-methoxy-ethyl)-methyl-carbamoyl]-3-methyl-butyl}-amide]
18 | 3560 | CCC(CC)n1c(Cc2cccs2)nc2cc(C(=O)N[C@@H](CC(C)C)C(=O)NCCC3CCOCC3)ccc21 [Example 382, 1-(1-Ethyl-propyl)-2-thiophen-2-ylmethyl-1H-benzoimidazole-5-carboxylic acid {(S)-3-methyl-1-[2-(tetrahydro-pyran-4-yl)-ethylcarbamoyl]-butyl}-amide]
19 | 2120 | CCOCCNC(=O)[C@H](CC(C)C)NC(=O)c1ccc2c(c1)nc(Cc1cccs1)n2C(CC)CC [Example 383, 1-(1-Ethyl-propyl)-2-thiophen-2-ylmethyl-1H-benzoimidazole-5-carboxylic acid [(S)-1-(2-ethoxy-ethylcarbamoyl)-3-methyl-butyl]-amide]
20 | 1140 | CCC(CC)n1c(Cc2cccs2)nc2cc(C(=O)N[C@@H](CC(C)C)C(=O)N(C)CC3CCCO3)ccc21 (stereo partly drawn) [Example 387, 1-(1-Ethyl-propyl)-2-thiophen-2-ylmethyl-1H-benzoimidazole-5-carboxylic acid {(S)-3-methyl-1-[methyl-(tetrahydro-furan-2-ylmethyl)-carbamoyl]-butyl}-amide]
21 | 2180 | CCC(CC)n1c(Cc2cccs2)nc2cc(C(=O)N[C@@H](CC(C)C)C(=O)NCCCOCC3CC3)ccc21 [Example 391, 1-(1-Ethyl-propyl)-2-thiophen-2-ylmethyl-1H-benzoimidazole-5-carboxylic acid [(S)-1-(3-cyclopropylmethoxy-propylcarbamoyl)-3-methyl-butyl]-amide]
22 | 2330 | CCC(CC)n1c(Cc2cccs2)nc2cc(C(=O)N[C@@H](CC(C)C)C(=O)NCC(C)(C)OC)ccc21 [Example 394, 1-(1-Ethyl-propyl)-2-thiophen-2-ylmethyl-1H-benzoimidazole-5-carboxylic acid [(S)-1-(2-methoxy-2-methyl-propylcarbamoyl)-3-methyl-butyl]-amide]
23 | 1760 | CCC(CC)n1c(Cc2cccs2)nc2cc(C(=O)N[C@@H](CC(C)C)C(=O)N(C)CC3CCCCO3)ccc21 (stereo partly drawn) [Example 395, 1-(1-Ethyl-propyl)-2-thiophen-2-ylmethyl-1H-benzoimidazole-5-carboxylic acid {(S)-3-methyl-1-[methyl-(tetrahydro-pyran-2-ylmethyl)-carbamoyl]-butyl}-amide]
24 | 8740 | CCC(CC)n1c(Cc2cccs2)nc2cc(C(=O)N[C@@H](CC(C)C)C(=O)NC3COC4(CCCCC4)C3)ccc21 (stereo partly drawn) [Example 397, 1-(1-Ethyl-propyl)-2-thiophen-2-ylmethyl-1H-benzoimidazole-5-carboxylic acid [(S)-3-methyl-1-(1-oxa-spiro[4.5]dec-3-ylcarbamoyl)-butyl]-amide]
25 | 5460 | CCC(CC)n1c(Cc2cccs2)nc2cc(C(=O)N[C@@H](CC(C)C)C(=O)NC3COC4(CCCC4)C3)ccc21 (stereo partly drawn) [Example 398, 1-(1-Ethyl-propyl)-2-thiophen-2-ylmethyl-1H-benzoimidazole-5-carboxylic acid [(S)-3-methyl-1-(1-oxa-spiro[4.4]non-3-ylcarbamoyl)-butyl]-amide]
